In patent publication US6737383B1, “Herbicidal oxadiazolidines” (priority 1999, dated 2004):

Tests used:
cocklebur = assay: Test B pre/postemergence cocklebur; assay type: in vivo, Xanthium strumarium
Method in brief: (§1)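 Test chemicals in a non-phytotoxic solvent mixture with surfactant were sprayed preemergence onto planted seeds and postemergence onto plants 2 to 18 cm tall (1- to 4-leaf stage). After twelve to sixteen days in a greenhouse, injury was visually rated against untreated controls from 0 (no effect) to 10 (complete control).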

duck salad = assay: Test B flood test duck salad; assay type: in vivo, Heteranthera limosa
Method in brief: (§2)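 Each value is a visual injury score relative to controls, with 10 meaning complete control and 0 no effect. Evaluation took place twelve to sixteen days after the 2-leaf-stage plants were treated and kept in the greenhouse.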

bedstraw = assay: Test B pre/postemergence bedstraw; assay type: in vivo, Galium aparine
Method in brief: as §1

wild oat = assay: Test B pre/postemergence wild oat; assay type: in vivo, Avena fatua
Method in brief: as §1

rice = assay: Test B flood test rice; assay type: in vivo, Oryza sativa
Method in brief: as §2

giant foxtail = assay: Test B pre/postemergence giant foxtail; assay type: in vivo, Setaria faberii
Method in brief: as §1

velvetleaf = assay: Test B pre/postemergence velvetleaf; assay type: in vivo, Abutilon theophrasti
Method in brief: as §1

bamyardgrass = assay: Test B flood test barnyardgrass; assay type: in vivo, Echinochloa crus-galli
Method in brief: as §2

smallflower flatsedge = assay: Test B flood test smallflower flatsedge; assay type: in vivo, Cyperus difformis
Method in brief: as §2

crabgrass = assay: Test B pre/postemergence crabgrass; assay type: in vivo, Digitaria sanguinalis
Method in brief: as §1

sugar beet = assay: Test B pre/postemergence sugar beet; assay type: in vivo, Beta vulgaris
Method in brief: as §1

blackgrass = assay: Test B pre/postemergence blackgrass; assay type: in vivo, Alopecurus myosuroides
Method in brief: as §1

purple nutsedge = assay: Test B pre/postemergence purple nutsedge; assay type: in vivo, Cyperus rotundus
Method in brief: as §1

rape = assay: Test B pre/postemergence rape; assay type: in vivo, Brassica napus
Method in brief: as §1

soybean = assay: Test B pre/postemergence soybean; assay type: in vivo, Glycine max
Method in brief: as §1

surinam grass = assay: Test B pre/postemergence surinam grass; assay type: in vivo, Brachiaria decumbens
Method in brief: as §1

pigweed = assay: Test B pre/postemergence pigweed; assay type: in vivo, Amaranthus retroflexus
Method in brief: as §1

morningglory = assay: Test B pre/postemergence morningglory; assay type: in vivo, Ipomoea hederacea
Method in brief: as §1

wheat = assay: Test B pre/postemergence wheat; assay type: in vivo, Triticum aestivum
Method in brief: as §1

corn = assay: Test B pre/postemergence corn; assay type: in vivo, Zea mays
Method in brief: as §1

[1] = Postemergence, Rate 62 g/ha, scale 0 to 10, 0 is no effect, 10 is complete control
[2] = Postemergence, Rate 125 g/ha, scale of 0 to 10 where 0 is no effect and 10 is complete control
[3] = Postemergence, Rate 250 g/ha, scale of 0 to 10, 0 is no effect, 10 is complete control
[4] = Preemergence, Rate 62 g/ha, scale of 0 to 10 where 0 is no effect and 10 is complete control
[5] = Preemergence, Rate 125 g/ha, scale of 0 to 10 where 0 is no effect and 10 is complete control
[6] = Preemergence, Rate 250 g/ha, scale 0 to 10 (0 no effect, 10 complete control)
[7] = Preemergence, Rate 500 g/ha, scale of 0 to 10 where 0 is no effect and 10 is complete control
[8] = Rate 500 g/ha, Postemergence, scale 0 to 10, 0 is no effect, 10 is complete control
[9] = Rate 62 g/ha, flood test species, Pre-emergence, visual evaluation after twelve to sixteen days
[10] = Rate 125 g/ha, under heading Pre-emergence, flood test species, visual evaluation after twelve to sixteen days
[11] = Rate 250 g/ha, Pre-emergence (flood test species), scale 0 to 10, 0 is no effect, 10 is complete control
[12] = Rate 500 g/ha, Pre-emergence section of Table B, 0 to 10 scale (0 no effect, 10 complete control)

Which results are given for CC(C)N(C(=O)n1oc(=O)n(CCCC#N)c1=O)c1ccccc1 [Compound 674]?
Plant response rating, Cocklebur (cocklebur; [1]): 0; Cocklebur plant response rating (cocklebur; [2]): 0; Cocklebur plant response rating (cocklebur; [3]): 2; Cocklebur plant response rating (cocklebur; [4]): 0; Plant response rating, Cocklebur (cocklebur; [5]): 0; Plant response rating, Cocklebur (cocklebur; [6]): 0; Plant response rating, Cocklebur (cocklebur; [7]): 0; Cocklebur plant response rating (cocklebur; [8]): 4; Plant response rating, Ducksalad (0 to 10 scale, 0 is no effect, 10 is complete control) (duck salad; [9]): 0; Ducksalad plant response rating (0 to 10 scale, 0 is no effect, 10 is complete control) (duck salad; [10]): 0; Ducksalad plant response rating (duck salad; [11]): 0; Ducksalad plant response rating (duck salad; [12]): 0; Bedstraw plant response rating (bedstraw; [3]): 0; Bedstraw plant response rating (bedstraw; [4]): 0; Plant response rating, Bedstraw (bedstraw; [5]): 0; Plant response rating, Bedstraw (bedstraw; [7]): 0; Plant response rating, Wild oats (wild oat; [1]): 0; Wild oats plant response rating (wild oat; [2]): 0; Wild oats plant response rating (wild oat; [4]): 1; Plant response rating, Wild oats (wild oat; [5]): 3; Plant response rating, Wild oats (wild oat; [7]): 10; Wild oats plant response rating (wild oat; [8]): 3; Plant response rating, Rice (0 to 10 scale, 0 is no effect, 10 is complete control) (rice; [9]): 0; Rice plant response rating (0 to 10 scale, 0 is no effect, 10 is complete control) (rice; [10]): 0; Rice plant response rating (rice; [11]): 0; Rice plant response rating (rice; [12]): 0; Plant response rating, Giant foxtail (giant foxtail; [1]): 7; Giant foxtail plant response rating (giant foxtail; [2]): 9; Giant foxtail plant response rating (giant foxtail; [3]): 9; Giant foxtail plant response rating (giant foxtail; [4]): 6; Plant response rating, Giant foxtail (giant foxtail; [5]): 9; Plant response rating, Giant foxtail (giant foxtail; [7]): 10; Giant foxtail plant response rating (giant foxtail; [8]): 9; Plant response rating, Velvetleaf (velvetleaf; [1]): 4; Velvetleaf plant response rating (velvetleaf; [2]): 6; Velvetleaf plant response rating (velvetleaf; [4]): 6; Plant response rating, Velvetleaf (velvetleaf; [5]): 7; Plant response rating, Velvetleaf (velvetleaf; [7]): 10; Velvetleaf plant response rating (velvetleaf; [8]): 8; Plant response rating, Barnyardgrass (0 to 10 scale, 0 is no effect, 10 is complete control) (bamyardgrass; [9]): 0; Barnyardgrass plant response rating (0 to 10 scale, 0 is no effect, 10 is complete control) (bamyardgrass; [10]): 0; Barnyardgrass plant response rating (bamyardgrass; [11]): 0; Barnyardgrass plant response rating (bamyardgrass; [12]): 0; Plant response rating, S. Flatsedge (0 to 10 scale, 0 is no effect, 10 is complete control) (smallflower flatsedge; [9]): 0; S. Flatsedge plant response rating (0 to 10 scale, 0 is no effect, 10 is complete control) (smallflower flatsedge; [10]): 0; S. Flatsedge plant response rating (smallflower flatsedge; [11]): 0; S. Flatsedge plant response rating (smallflower flatsedge; [12]): 0; Plant response rating, Crabgrass (crabgrass; [1]): 6; Crabgrass plant response rating (crabgrass; [2]): 8; Crabgrass plant response rating (crabgrass; [3]): 9; Crabgrass plant response rating (crabgrass; [4]): 8; Plant response rating, Crabgrass (crabgrass; [5]): 9; Plant response rating, Crabgrass (crabgrass; [6]): 9; Plant response rating, Crabgrass (crabgrass; [7]): 9; Crabgrass plant response rating (crabgrass; [8]): 9; Plant response rating, Sugarbeets (sugar beet; [1]): 0; Sugarbeets plant response rating (sugar beet; [2]): 0; Sugarbeets plant response rating (sugar beet; [4]): 2; Plant response rating, Sugarbeets (sugar beet; [5]): 5; Plant response rating, Sugarbeets (sugar beet; [7]): 9; Sugarbeets plant response rating (sugar beet; [8]): 5; Plant response rating, Blackgrass (blackgrass; [1]): 4; Blackgrass plant response rating (blackgrass; [2]): 7; Blackgrass plant response rating (blackgrass; [3]): 8; Blackgrass plant response rating (blackgrass; [4]): 6; Plant response rating, Blackgrass (blackgrass; [5]): 8; Plant response rating, Blackgrass (blackgrass; [6]): 9; Plant response rating, Blackgrass (blackgrass; [7]): 9; Blackgrass plant response rating (blackgrass; [8]): 9; Plant response rating, Nutsedge (purple nutsedge; [1]): 0; Nutsedge plant response rating (purple nutsedge; [2]): 3; Nutsedge plant response rating (purple nutsedge; [4]): 0; Plant response rating, Nutsedge (purple nutsedge; [5]): 0; Plant response rating, Nutsedge (purple nutsedge; [7]): 6; Plant response rating, Rape (rape; [1]): 0; Rape plant response rating (rape; [2]): 0; Rape plant response rating (rape; [4]): 0; Plant response rating, Rape (rape; [5]): 3; Plant response rating, Rape (rape; [7]): 8; Rape plant response rating (rape; [8]): 5; Plant response rating, Soybean (soybean; [1]): 2; Soybean plant response rating (soybean; [2]): 3; Soybean plant response rating (soybean; [4]): 3; Plant response rating, Soybean (soybean; [5]): 3; Plant response rating, Soybean (soybean; [7]): 7; Soybean plant response rating (soybean; [8]): 7; Plant response rating, B. signalgrass (surinam grass; [1]): 3; B. signalgrass plant response rating (surinam grass; [2]): 5; B. signalgrass plant response rating (surinam grass; [3]): 8; B. signalgrass plant response rating (surinam grass; [4]): 6; Plant response rating, B. signalgrass (surinam grass; [5]): 7; Plant response rating, B. signalgrass (surinam grass; [6]): 8; Plant response rating, B. signalgrass (surinam grass; [7]): 8; B. signalgrass plant response rating (surinam grass; [8]): 8; Plant response rating, Redroot pigweed (pigweed; [1]): 0; Redroot pigweed plant response rating (pigweed; [2]): 3; Redroot pigweed plant response rating (pigweed; [4]): 7; Plant response rating, Redroot pigweed (pigweed; [5]): 7; Plant response rating, Redroot pigweed (pigweed; [7]): 10; Redroot pigweed plant response rating (pigweed; [8]): 7; Plant response rating, Morningglory (morningglory; [1]): 2; Morningglory plant response rating (morningglory; [2]): 2; Morningglory plant response rating (morningglory; [3]): 10; Morningglory plant response rating (morningglory; [4]): 0; Plant response rating, Morningglory (morningglory; [5]): 0; Plant response rating, Morningglory (morningglory; [7]): 7; Plant response rating, Wheat (wheat; [1]): 0; Wheat plant response rating (wheat; [2]): 0; Wheat plant response rating (wheat; [4]): 0; Plant response rating, Wheat (wheat; [5]): 5; Plant response rating, Wheat (wheat; [7]): 8; Wheat plant response rating (wheat; [8]): 7; Plant response rating, Corn (corn; [1]): 0; Corn plant response rating (corn; [2]): 3; Corn plant response rating (corn; [3]): 6; Corn plant response rating (corn; [4]): 2; Plant response rating, Corn (corn; [5]): 3; Plant response rating, Corn (corn; [6]): 5; Plant response rating, Corn (corn; [7]): 8; Corn plant response rating (corn; [8]): 7
